Reference: patent publication US12180187B2, “1-phenyl-5-azinylpyrazolyl-3-oxyalkyl acids and their use for controlling unwanted plant growth” (BAYER AKTIENGESELLSCHAFT, priority 2019, dated 2024)

Legend:
ALOMY [1] = test: Pre-emergence action at 320 g/ha against ALOMY; type: in vivo, Alopecurus myosuroides; conditions: scored visually after about 3 weeks vs untreated controls (100% = plants have died)
Outline: (§1)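 Pre-emergence soil-surface spray: WP or EC formulation, aqueous, 0.5% additive, 600 l/ha water volume. Greenhouse growth about 3 weeks; visual percent effect relative to untreated pots.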

AVEFA [2] = test: Pre-emergence action at 320 g/ha against AVEFA; type: in vivo; conditions: visual scoring after about 3 weeks vs untreated controls
Outline: as §1

ECHGC = test: Pre-emergence action at 320 g/ha against ECHGC; type: in vivo, Echinochloa crus-galli; conditions: visual scoring after about 3 weeks vs untreated controls
Outline: as §1

LOLRI = test: Pre-emergence action at 320 g/ha against LOLRI; type: in vivo, Lolium rigidum; conditions: visual scoring after about 3 weeks vs untreated controls
Outline: as §1

SETVI [3] = test: Pre-emergence action at 320 g/ha against SETVI; type: in vivo, Setaria viridis; conditions: visual scoring after about 3 weeks vs untreated controls
Outline: as §1

AMARE [4] = test: Pre-emergence action at 320 g/ha against AMARE; type: in vivo, Amaranthus retroflexus; conditions: visual scoring after about 3 weeks vs untreated controls
Outline: as §1

MATIN = test: Pre-emergence action at 320 g/ha against MATIN; type: in vivo, Tripleurospermum inodorum (Matricaria inodora); conditions: visual scoring after about 3 weeks vs untreated controls
Outline: as §1

PHBPU = test: Pre-emergence action at 320 g/ha against PHBPU; type: in vivo; conditions: visual scoring after about 3 weeks vs untreated controls
Source text: b) Seeds of monocotyledonous and dicotyledonous weed plants and crop plants are placed in plastic or organic planting pots and covered with soil. The compounds of the invention, formulated in the form of wettable powders (WP) or as emulsion concentrates (EC), are then applied onto the surface of the covering soil as aqueous suspension or emulsion with addition of 0.5% additive at a water application rate of 600 l/ha (converted). After the treatment, the pots are placed in a greenhouse and kept under good growth conditions for the trial plants. After about 3 weeks, the effect of the preparations is scored visually in comparison with untreated controls as percentages. For example, 100% activity=the plants have died, 0% activity=like control plants. Tables 13 to 26 below show the effects of selected compounds of the general formula (I) on various harmful plants and at an application rate corresponding to 320 g/ha, which were obtained by the experimental procedure mentioned above.

POLCO [5] = test: Pre-emergence action at 320 g/ha against POLCO; type: in vivo, Fallopia convolvulus (Polygonum convolvulus); conditions: visual scoring after about 3 weeks vs untreated controls
Outline: as §1

VERPE = test: Pre-emergence action at 320 g/ha against VERPE; type: in vivo, Veronica persica; conditions: visual scoring after about 3 weeks vs untreated controls
Outline: as §1

VIOTR [6] = test: Pre-emergence action at 320 g/ha against VIOTR; type: in vivo, Viola tricolor; conditions: dosage 320 g/ha
Outline: as §1

DIGSA [7] = test: Pre-emergence action at 320 g/ha against DIGSA; type: in vivo, Digitaria sanguinalis; conditions: Digitaria sanguinalis, 504 h, visual scoring after about 3 weeks vs untreated controls
Outline: as §1

ALOMY [8] = test: Post-emergence action against ALOMY, 320 g/ha; type: in vivo, Alopecurus myosuroides; conditions: dosage 320 g/ha, visual rating about 3 weeks after treatment vs untreated controls (100% = plants died)
Source text: (§2) Accordingly, the compounds of the invention have good herbicidal action against a broad spectrum of weed grasses and broad-leaved weeds and are therefore suitable for controlling unwanted vegetation by the post-emergence method. • b) Seeds of monocotyledonous and dicotyledonous weeds and crop plants are placed in sandy loam in plastic or organic planting pots, covered with soil and cultivated in a greenhouse under controlled growth conditions. 2 to 3 weeks after sowing, the test plants are treated at the one-leaf stage. The compounds of the invention, formulated in the form of wettable powders (WP) or as emulsion concentrates (EC), are then sprayed onto the green parts of the plants as aqueous suspension or emulsion with addition of 0.5% additive at a water application rate of 600 l/ha (converted). After the test plants have been kept in the greenhouse under optimum growth conditions for about 3 weeks, the activity of the preparations is rated visually in comparison to untreated controls. For example, 100% activity=the plants have died, 0% activity=like control plants. Tables 39 to 49 below show the effects of selected compounds of the general formula (I) according to Tables 1 and 2 on various harmful plants and at an application rate corresponding to 320 g/ha, which were obtained by the experimental procedure mentioned above.

DIGSA [9] = test: Post-emergence action at 320 g/ha against DIGSA; type: in vivo, Digitaria sanguinalis; conditions: Digitaria sanguinalis, 504 h, dosage 320 g/ha, visual rating about 3 weeks after treatment vs untreated controls (100% = plants died)
Source text: as §2

ECHCG = test: Post-emergence action at 320 g/ha against ECHCG; type: in vivo, Echinochloa crus-galli; conditions: dosage 320 g/ha, visual rating about 3 weeks after treatment vs untreated controls (100% = plants died)
Source text: as §2

AMARE [10] = test: Post-emergence action at 320 g/ha against AMARE; type: in vivo, Amaranthus retroflexus; conditions: Amaranthus retroflexus, 504 h, visual rating about 3 weeks after treatment vs untreated controls
Source text: as §2

SETVI [11] = test: Post-emergence action at 320 g/ha against SETVI; type: in vivo, Setaria viridis; conditions: visual rating about 3 weeks after treatment vs untreated controls
Source text: as §2

POLCO [12] = test: Post-emergence action at 320 g/ha against POLCO; type: in vivo, Fallopia convolvulus (Polygonum convolvulus); conditions: Fallopia convolvulus, 504 h, visual rating about 3 weeks after treatment vs untreated controls
Source text: as §2

VIOTR [13] = test: Post-emergence action at 320 g/ha against VIOTR; type: in vivo, Viola tricolor; conditions: Viola tricolor, 504 h, visual rating about 3 weeks after treatment vs untreated controls
Source text: as §2

AVEFA [14] = test: Post-emergence action at 320 g/ha against AVEFA; type: in vivo; conditions: Avena fatua, 504 h, visual rating about 3 weeks after treatment vs untreated controls
Source text: as §2

SMILES: CCOC(=O)CN(C)S(=O)(=O)NC(=O)COc1nn(-c2ccccc2F)c(-c2cncc(F)c2)c1Br [Example X-041]
- Pre-emergence action at 320 g/ha against ALOMY in % (ALOMY [1]): 100%
- Pre-emergence action against AVEFA in % (AVEFA [2]): 80%
- Pre-emergence action against ECHGC in % (ECHGC): 80%
- Pre-emergence action against LOLRI in % (LOLRI): 90%
- Pre-emergence action against SETVI in % (SETVI [3]): 90%
- Pre-emergence action against AMARE in % (AMARE [4]): 90%
- Pre-emergence action against MATIN in % (MATIN): 90%
- Pre-emergence action against PHBPU in % (PHBPU): 90%
- Pre-emergence action against POLCO in % (POLCO [5]): 90%
- Pre-emergence action against VERPE in % (VERPE): 100%
- Pre-emergence action against VIOTR in % (VIOTR [6]): 100%

SMILES: COC(=O)[C@@H](C)Oc1nn(-c2ccccc2F)c(-c2ccc(F)nc2)c1Br [VII-004, Methyl (2R)-2-{[4-bromo-1-(2-fluorophenyl)-5-(6-fluoropyridin-3-yl)-1H-pyrazol-3-yl]oxy}propanoate]
- pest or weed control at 320 g/ha (ALOMY [1]; Alopecurus myosuroides, 504 h): 90%
- pest or weed control at 320 g/ha (DIGSA [7]): 100%
- pest or weed control at 320 g/ha (LOLRI; Lolium rigidum, 504 h): 80%
- pest or weed control at 320 g/ha (SETVI [3]; Setaria viridis, 504 h): 100%
- pest or weed control at 320 g/ha (AMARE [4]; Amaranthus retroflexus, 504 h): 90%
- pest or weed control at 320 g/ha (MATIN; Tripleurospermum inodorum, 504 h): 80%
- pest or weed control at 320 g/ha (POLCO [5]; Fallopia convolvulus, 504 h): 90%
- pest or weed control at 320 g/ha (VIOTR [6]; Viola tricolor, 504 h): 100%
- Post-emergence action against ALOMY (ALOMY [8]): 90%
- pest or weed control at 320 g/ha (DIGSA [9]): 90%
- Post-emergence action at 320 g/ha against ECHCG in % (ECHCG): 90%
- pest or weed control at 320 g/ha (AMARE [10]): 90%
- Post-emergence action against SETVI in % (SETVI [11]): 90%
- pest or weed control at 320 g/ha (POLCO [12]): 80%
- pest or weed control at 320 g/ha (VIOTR [13]): 90%
- pest or weed control at 320 g/ha (AVEFA [14]): 90%
